Laboratory results taken from patent US10660928B2, “Pharmaceutical composition containing combination extracts of Moutan Root Bark, Angelica Dahurica Root, bupleurum root or fractions thereof for prevention and treatment of neurodegenerative disorder” (UNIVERSITY-INDUSTRY COOPERATION GROUP OF KYUNG HEE …, priority 2014, dated 2020).

Assays:
[1] = test system: BV2, the mouse microglial cell line; test: Cell survival rate (calcein) in normal microglial cells, cytotoxicity; type: cell-based; conditions: 1.0 μg/ml, 4 hours
Procedure: Particularly, BV2, the mouse microglial cell line, was inoculated in 1:1 DMEM (Dulbeco's Modified Eagle's Medium; Gibco, USA) supplemented with 10% FBS, followed by culture in a 37° C., 5% CO2/95% air (O2) incubator. Then, the cultured cells were transferred into a serum free medium at the density of 2.5×10^4 cells/well. The cells were treated with the Bupleurum Root 90% ethanol extract prepared in Example <1-3>, saikosaponin A, saikosaponin B2, saikosaponin B4, or saikosaponin D at the concentration of 1.0 μg/ml for 4 hours. The cells were collected and the cell survival rate was measured by using calcein. The survival rate of the cells that were increased or decreased compared with that of the normal control cells not-treated with the extract or its active component above and instead treated with DMSO was calculated and presented as percentage (%).

[2] = test system: BV2 cells; test: MTT assay, LPS-induced inflammatory response; type: cell-based, mouse; conditions: BV2, treatment 1.0 μg/ml, inducer LPS 100 ng/ml
Procedure: Particularly, BV2 cells were cultured by the same manner as described in Experimental Example <3-1>. Then, the cultured cells were transferred into a serum free medium at the density of 1×10^5 cells/well. The cells were treated with the Bupleurum Root 90% ethanol extract prepared in Example <1-3>, saikosaponin A, saikosaponin B2, saikosaponin B4, or saikosaponin D at the concentration of 1.0 μg/ml, followed by culture for 4 hours. The cells were then treated with 100 ng/ml of lipopolysaccharide (LPS), followed by culture for 20 hours to induce inflammatory response. MTT assay was performed with the cells induced with inflammatory response by the same manner as described in Experimental Example <1-2>. The damage of mitochondria complex 1 was confirmed to see how the damage level was either increased or decreased, compared with the normal control group treated with DMSO without the extract or its active component. In the meantime, the negative control group was treated with 100 ng/ml of LPS alone to induce inflammatory response and was not treated with the extract or its active component. Then, MTT assay was performed by the same manner as described above.

[3] = test system: BV2 cells; test: Griess method, nitric oxide in medium of LPS-induced cells; type: cell-based, mouse; conditions: BV2, treatment 1.0 μg/ml, inducer LPS 100 ng/ml
Procedure: Particularly, BV2 cells were cultured by the same manner as described in Experimental Example <3-1>, and inflammatory response was induced. Then, 100 μl of the cell culture medium was obtained, to which 100 μl of Griess reagent comprising hydrochloric acid containing 5% sulfanilamide and 2% naphthylethylenediamine was added, followed by reaction in a dark room for 30 minutes. Upon completion of the reaction, OD540 was measured with an EISA microplate reader (Versamax, USA). The concentration of nitric oxide in the medium was calculated using the standard calibration curve of sodium nitrite. The normal control was not treated with the extract or the active component thereof but treated with DMSO. The negative control was treated with 100 ng/ml of LPS alone to induce inflammatory response but not treated with the extract or the active component. Then, the nitric oxide concentration reduction effect was investigated by the same manner as described above.
(§1) Particularly, BV2 cells were cultured by the same manner as described in Experimental Example <3-1>, and inflammatory response was induced. Then, 100 μl of the cell culture medium was obtained, to which 100 μl of Griess reagent comprising hydrochloric acid containing 5% sulfanilamide and 2% naphthylethylenediamine was added, followed by reaction in a dark room for 30 minutes. Upon completion of the reaction, OD540 was measured with an EISA microplate reader (Versamax, USA). The concentration of nitric oxide in the medium was calculated using the standard calibration curve of sodium nitrite. To measure the ROS concentration, the cells were treated with 1 μM DCF-DA and 0.05 μM bisbenzimide (Hoechst 33342), followed by staining at 37° C. for 1 hour. After the staining, the fluorescence intensity of DCF-DA was measured at 485 nm/535 nm, and the fluorescence intensity of bisbenzimide was measured at 335 nm/460 nm. Based on the ratio of DCF-DA/bisbenzimide, ROS was quantified. The amount of ROS, either increased or decreased, was compared with that of the normal control not treated with the extract but treated with DMSO, and the results were presented as %. The negative control was treated with 100 ng/ml of LPS alone to induce inflammatory response but not treated with the extract or the active component thereof. Then, the nitric oxide concentration reduction effect and the ROS concentration reduction effect were investigated by the same manner as described above.

[4] = test system: inducible nitric oxide synthase (iNOS); test: RT-PCR of iNOS mRNA, LPS-induced cells; type: cell-based, mouse; conditions: BV2, treatment 1.0 μg/ml, LPS 100 ng/ml; negative control 100.00
Procedure: (§2) Particularly, BV2 cells were cultured by the same manner as described in Experimental Example <3-1>, and inflammatory response was induced. Then, RT-PCR was performed with the cells by the same manner as described in Experimental Example <1-4>, followed by quantitative analysis of the expression levels of iNOS, IL-6, and NF-kB p65/ReIA genes. The normal control was not treated with the extract of the invention or the active component thereof but treated with DMSO alone. The negative control was not treated with the extract or the active component but treated with 100 ng/ml of LPS alone to induce inflammatory response. Then, the expression of the inflammatory response marker gene was confirmed by the same manner as described above.

[5] = test system: interleukin-6, (IL-6); test: RT-PCR of IL-6 mRNA, LPS-induced cells; type: cell-based, mouse; conditions: BV2, treatment 1.0 μg/ml, LPS 100 ng/ml; negative control 100.00
Procedure: as §2

[6] = test system: NF-kB p65/ReIA; test: RT-PCR of NF-kB p65/ReIA mRNA, LPS-induced cells; type: cell-based, mouse; conditions: BV2, treatment 1.0 μg/ml, LPS 100 ng/ml; negative control 100.00
Procedure: as §2

[7] = test system: BV2 cells; test: DCF-DA intracellular ROS, LPS-induced cells; type: cell-based, mouse; conditions: BV2, treatment 1.0 μg/ml, inducer LPS 100 ng/ml
Procedure: Particularly, BV2 cells were cultured by the same manner as described in Experimental Example <3-1>, and inflammatory response was induced. Then, the cells induced with inflammatory response were treated with 1 μM DCF-DA and 0.05 μM bisbenzimide (Hoechst 33342), followed by staining at 37° C. for 1 hour. After the staining, the fluorescence intensity of DCF-DA was measured at 485 nm/535 nm, and the fluorescence intensity of bisbenzimide was measured at 335 nm/460 nm. Based on the ratio of DCF-DA/bisbenzimide, ROS was quantified. The amount of ROS, either increased or decreased, was compared with that of the normal control not treated with the extract or the active component thereof but treated with DMSO, and the results were presented as %. The negative control was treated with 100 ng/ml of LPS alone to induce inflammatory response but not treated with the extract or the active component thereof. Then, the generation of ROS was investigated by the same manner as described above.
as §1

Structure (SMILES) | Cell survival rate (% of control) [1] | MTT (% of control) [2] | NO [3] [µM] | iNOS mRNA (% of control) [4] | IL-6 mRNA (% of control) [5] | p65/ReIA mRNA (% of control) [6] | DCF-DA-ROS (% of control) [7]
C[C@H]1O[C@@H](O[C@H]2CC[C@@]3(C)[C@@H](CC[C@]4(C)[C@@H]3C=CC3=C5CC(C)(C)CC[C@]5(CO)[C@H](O)C[C@]34C)[C@]2(C)CO)[C@H](O)[C@@H](O[C@@H]2O[C@H](CO)[C@@H](O)[C@H](O)[C@H]2O)[C@H]1O [saikosaponin B2, (3b,4a,16a)-16,23,28-Trihydroxyoleana-11,13(18)-dien-3-yl-6-deoxy-3-O-beta-D-glucopyranosyl-beta-D-galactopyranoside] | 102.74 ± 8.55 % of control | 88.85 ± 6.48 % of control | 19 ± 2.68 | 18.11 ± 2.39 % of control | 29.67 ± 2.39 % of control | 50.18 ± 2.67 % of control | 214.22 ± 1.87 % of control
CO[C@@H]1C=C2[C@@H]3CC(C)(C)CC[C@]3(CO)[C@H](O)C[C@@]2(C)[C@]2(C)CC[C@H]3[C@](C)(CO)[C@@H](O[C@@H]4O[C@H](C)[C@H](O)[C@H](O[C@@H]5O[C@H](CO)[C@@H](O)[C@H](O)[C@H]5O)[C@H]4O)CC[C@]3(C)[C@@H]12 [saikosaponin B4, (3β,11α,16α)-16,23,28-Trihydroxy-11-methoxyolean-12-en-3-yl-6-deoxy-3-O-β-D-glucopyranosyl-β-D-galactopyranoside] | 97.99 ± 2.86 % of control | 87.12 ± 2.56 % of control | 17.2 ± 2.11 | 26.06 ± 3.27 % of control | 28.53 ± 1.92 % of control | 53.70 ± 4.72 % of control | 223.26 ± 2.86 % of control
C[C@H]1O[C@@H](O[C@H]2CC[C@@]3(C)[C@@H](CC[C@]4(C)[C@@H]3C=C[C@]35OC[C@@]6(CCC(C)(C)C[C@H]63)[C@H](O)C[C@]54C)[C@]2(C)CO)[C@H](O)[C@@H](O[C@@H]2O[C@H](CO)[C@@H](O)[C@H](O)[C@H]2O)[C@H]1O [saikosaponin D, (3b,4a,16a)-13,28-Epoxy-16,23-dihydroxyolean-11-en-3-yl 6-deoxy-3-O-beta-D-glucopyranosyl beta-D-galactopyranoside] | 97.45 ± 3.99 % of control | 86.73 ± 1.25 % of control | 18.1 ± 2.93 | 21.23 ± 1.99 % of control | 26.58 ± 1.75 % of control | 49.80 ± 3.54 % of control | 218.61 ± 2.71 % of control
